# According to publication PMC3756528 (Biochemistry, 2013):
# T1: RsTSPO (Cereibacter sphaeroides, UniProt Q9RFC8)
# T1 sequence (Q9RFC8 1-158): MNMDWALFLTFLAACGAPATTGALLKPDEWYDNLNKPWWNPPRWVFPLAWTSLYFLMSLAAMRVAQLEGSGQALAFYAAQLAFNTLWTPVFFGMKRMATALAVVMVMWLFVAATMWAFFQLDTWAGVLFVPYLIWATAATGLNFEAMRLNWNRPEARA
# T2: RsTSPOW38C (Cereibacter sphaeroides, UniProt Q9RFC8, W38C)
# T2 sequence (Q9RFC8 1-158 W38C): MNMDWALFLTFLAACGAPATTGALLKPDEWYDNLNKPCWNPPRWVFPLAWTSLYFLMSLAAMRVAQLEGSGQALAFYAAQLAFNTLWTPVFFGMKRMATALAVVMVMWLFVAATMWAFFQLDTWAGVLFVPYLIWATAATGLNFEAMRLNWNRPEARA
# Experiments:
# [1] = target: T1, RsTSPO; experiment: Tryptophan fluorescence quenching binding assay, purified wild-type RsTSPO; parameters: species or system Rhodobacter sphaeroides; settings: for quenching of the tryptophan fluorescence: compared to that of PpIX
# [2] = target: T2, RsTSPOW38C; experiment: Tryptophan fluorescence quenching binding assay, purified RsTSPOW38C mutant; parameters: species or system Rhodobacter sphaeroides; settings: for decrease in binding affinity by the W38C mutation: RsTSPOW38C versus wild-type RsTSPO
# [3] = target: T1, RsTSPO; settings: cited from earlier work
# [4] = target: T1, RsTSPO; experiment: Competition binding assay of PpIX, PK11195 and cholesterol with purified RsTSPO; parameters: species or system Rhodobacter sphaeroides
# [5] = target: the molecule itself; experiment: SEC
molecule,measurement,setting,value
"NCC(=O)CCC(=O)O [ALA, δ-aminolevulinic acid]",quenching of the tryptophan fluorescence,[1],only a small quenching
CCC(C)N(C)C(=O)c1cc2ccccc2c(-c2ccccc2Cl)n1 (stereo not drawn) [PK11195],decrease in binding affinity by the W38C mutation,[2],3 fold
same,binding of PK11195 to wild-type RsTSPO,[3],no binding affinity above background
CC(C)CCC[C@@H](C)[C@H]1CC[C@H]2[C@@H]3CC=C4C[C@@H](O)CC[C@]4(C)[C@H]3CC[C@]12C [Cholesterol],Kd,"[2]; Kapp to RsTSPOW38C, estimated from half-maximal quenching",~200 µM
same,Kd,"[1]; Kapp to RsTSPO, estimated from half-maximal quenching",~80 µM
C[C@H](CCC(=O)O)[C@H]1CC[C@H]2[C@@H]3[C@@H](O)C[C@@H]4C[C@H](O)CC[C@]4(C)[C@H]3CC[C@]12C [ursodeoxycholate],affinity for RsTSPO,[1],no detectable affinity
same,quenching of the tryptophan fluorescence,[1],only a small quenching
"C=CC1=C(C)c2cc3[nH]c(cc4nc(cc5[nH]c(cc1n2)c(C)c5CCC(=O)O)C(CCC(=O)O)=C4C)c(C)c3C=C [PpIX, Protoporphyrin IX]",decrease in binding affinity by the W38C mutation,[2],6 fold
same,increase in the Kd of PpIX,[4]; RsTSPO preincubated with 20 μM PK11195,~3 fold
same,increase in the Kd of PpIX,[4]; RsTSPO preincubated with 20 μM PK11195 and 50 μM cholesterol together,~4 fold
same,maximal quenching of tryptophan fluorescence,"[1]; Rs- and HsTSPO, 290 to 400 nm",~100%
"RsTSPOW38C, W38C mutant of Translocator Protein 18 kDa from Rhodobacter sphaeroides (natural protein, UniProt Q9RFC8 1-158, looked up) MNMDWALFLTFLAACGAPATTGALLKPDEWYDNLNKPCWNPPRWVFPLAWTSLYFLMSLAAMRVAQLEGSGQALAFYAAQLAFNTLWTPVFFGMKRMATALAVVMVMWLFVAATMWAFFQLDTWAGVLFVPYLIWATAATGLNFEAMRLNWNRPEARA",binding result,[5],binds
